The molecules below were run against neutrophil elastase (Homo sapiens (Human), UniProt P08246) (assay: Human Neutrophil Elastase Assay). Conditions: substrate MeOSuc-Ala-Ala-Pro-Val-AMC.
Format: biochemical
Procedure: Human Neutrophil Elastase Assay
All other materials were of the highest grade commercially available.
The following buffers were used: Compound buffer: 100 mM Tris, 500 mM NaCl, adjusted to pH 7.5; Assay buffer: 100 mM Tris, 500 mM NaCl, adjusted to pH 7.5, containing 0.01% BSA.
Assay conditions: Test compounds were prediluted in DMSO and subsequently in compound buffer (5% DMSO final). […] After inactivation of the enzyme, fluorescence intensities were measured at 380 nm excitation and 460 nm emission wavelengths.
Each plate contains wells with a high value control (DMSO+enzyme+substrate) and wells with a low value control (DMSO+inactivated enzyme+substrate). IC50 values were estimated using a sigmoidal concentration response curve with variable slope. Means of low values were taken as 0%, means of high values as 100%.

Chain of neutrophil elastase (P08246 30-247): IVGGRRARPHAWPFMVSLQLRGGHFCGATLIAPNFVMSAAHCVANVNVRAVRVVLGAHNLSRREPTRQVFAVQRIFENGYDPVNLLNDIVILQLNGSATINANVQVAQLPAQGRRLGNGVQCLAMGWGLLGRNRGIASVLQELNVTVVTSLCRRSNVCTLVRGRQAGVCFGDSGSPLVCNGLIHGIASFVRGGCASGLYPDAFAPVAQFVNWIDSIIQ

Row | IC50 [nM] | Compound
1 | 1.2 | CCOC(=O)C1=C(C)N(c2cccc(C(F)(F)F)c2)C(=O)N(C)C1c1ccc(C#N)cc1C(=O)NCCCOC (stereo not drawn) [Example 3.25]
2 | 1.6 | CCOC(=O)C1=C(C)N(c2cccc(C(F)(F)F)c2)C(=O)N(C)C1c1ccc(C#N)cc1C(=O)NCC(F)(F)F (stereo not drawn) [Example 3.26]
3 | 2.2 | CCOC(=O)C1=C(C)N(c2cccc(C(F)(F)F)c2)C(=O)N(C)C1c1ccc(C#N)cc1C(=O)N1CCC(O)CC1 (stereo not drawn) [Example 3.27]
4 | 1.3 | CCOC(=O)C1=C(C)N(c2cccc(C(F)(F)F)c2)C(=O)N(C)C1c1ccc(C#N)cc1C(=O)NC1CCC(O)C1 (stereo not drawn) [Example 3.28]
5 | 1.4 | CCOC(=O)C1=C(C)N(c2cccc(C(F)(F)F)c2)C(=O)N(C)C1c1ccc(C#N)cc1C(=O)NC1CCOCC1 (stereo not drawn) [Example 3.29]
6 | 1.1 | CCOC(=O)C1=C(C)N(c2cccc(C(F)(F)F)c2)C(=O)N(C)C1c1ccc(C#N)cc1C(=O)N(C)CCCOC (stereo not drawn) [Example 3.30]
7 | 1 | CCOC(=O)C1=C(C)N(c2cccc(C(F)(F)F)c2)C(=O)N(C)C1c1ccc(C#N)cc1C(=O)NC1CCN(C)CC1 (stereo not drawn) [Example 3.31]
8 | 1.1 | CCOC(=O)C1=C(C)N(c2cccc(C(F)(F)F)c2)C(=O)N(C)C1c1ccc(C#N)cc1C(=O)NCCS(C)(=O)=O (stereo not drawn) [Example 3.32]
9 | < 1 | CCOC(=O)C1=C(C)N(c2cccc(C(F)(F)F)c2)C(=O)N(C)C1c1ccc(C#N)cc1C(=O)N(C)Cc1cnn(C)c1 (stereo not drawn) [Example 3.33]
10 | 1 | CCOC(=O)C1=C(C)N(c2cccc(C(F)(F)F)c2)C(=O)N(C)C1c1ccc(C#N)cc1C(=O)NC1CCS(=O)(=O)C1 (stereo not drawn) [Example 3.34]
11 | < 1 | CCOC(=O)C1=C(C)N(c2cccc(C(F)(F)F)c2)C(=O)N(C)C1c1ccc(C#N)cc1C(=O)NCCN(C)C (stereo not drawn) [Example 3.35]
12 | < 1 | CCOC(=O)C1=C(C)N(c2cccc(C(F)(F)F)c2)C(=O)N(C)C1c1ccc(C#N)cc1C(=O)N(C)CCN(C)C (stereo not drawn) [Example 3.36]
13 | 2.8 | CCOC(=O)C1=C(C)N(c2cccc(C(F)(F)F)c2)C(=O)N(C)C1c1ccc(C#N)cc1C(=O)N1CC[C@@H](N(C)C)C1 (stereo partly drawn) [Example 3.37]
14 | 1 | CCOC(=O)C1=C(C)N(c2cccc(C(F)(F)F)c2)C(=O)N(C)C1c1ccc(C#N)cc1C(=O)N1CC[C@H](N(C)C)C1 (stereo partly drawn) [Example 3.38]
15 | < 1 | CCOC(=O)C1=C(C)N(c2cccc(C(F)(F)F)c2)C(=O)N(C)C1c1ccc(C#N)cc1C(=O)N1CCn2cnnc2C1 (stereo not drawn) [Example 3.41]
16 | 2.9 | CCOC(=O)C1=C(C)N(c2cccc(C(F)(F)F)c2)C(=O)N(C)C1c1ccc(C#N)cc1C(=O)N1CCN(C2CC2)CC1 (stereo not drawn) [Example 3.42]
17 | 2.8 | CCOC(=O)C1=C(C)N(c2cccc(C(F)(F)F)c2)C(=O)N(C)C1c1ccc(C#N)cc1C(=O)N1CCN2CCCC2C1 (stereo not drawn) [Example 3.43]
18 | 1.1 | CCOC(=O)C1=C(C)N(c2cccc(C(F)(F)F)c2)C(=O)N(C)C1c1ccc(C#N)cc1C(=O)NC1CCN(C(C)C)C1 (stereo not drawn) [Example 3.44]
19 | 1.8 | CCOC(=O)C1=C(C)N(c2cccc(C(F)(F)F)c2)C(=O)N(C)C1c1ccc(C#N)cc1C(=O)N1CCN(C(C)C)CC1 (stereo not drawn) [Example 3.45]
20 | 3.8 | CCOC(=O)C1=C(C)N(c2cccc(C(F)(F)F)c2)C(=O)N(C)C1c1ccc(C#N)cc1C(=O)N1CCN2CCOCC2C1 (stereo not drawn) [Example 3.46]
21 | 1.4 | CCOC(=O)C1=C(C)N(c2cccc(C(F)(F)F)c2)C(=O)N(C)C1c1ccc(C#N)cc1C(=O)N1CCNCC1 (stereo not drawn) [Example 4, 4-[4-Cyano-2-(piperazine-1-carbonyl)-phenyl]-3,6-dimethyl-2-oxo-1-(3-trifluoromethyl-phenyl)-1,2,3,4-tetrahydro-pyrimidine-5-carboxylic acid ethyl ester]
22 | 2.4 | CCOC(=O)C1=C(C)N(c2cccc(C(F)(F)F)c2)C(=O)N(C)C1c1ccc(C#N)cc1C(=O)N1C[C@H]2C[C@@H]1CN2 (stereo partly drawn) [Example 4.1]
23 | 1.7 | CCOC(=O)C1=C(C)N(c2cccc(C(F)(F)F)c2)C(=O)N(C)C1c1ccc(C#N)cc1C(=O)NC1CCNCC1 (stereo not drawn) [Example 4.2]
24 | 4.8 | CCOC(=O)C1=C(C)N(c2cccc(C(F)(F)F)c2)C(=O)N(C)C1c1ccc(C#N)cc1C(=O)N1CCC(N)CC1 (stereo not drawn) [Example 4.3]
25 | < 1 | CCOC(=O)C1=C(C)N(c2cccc(C(F)(F)F)c2)C(=O)N(C)C1c1ccc(C#N)cc1C(=O)NCCN (stereo not drawn) [Example 4.5]
26 | < 1 | CCOC(=O)C1=C(C)N(c2cccc(C(F)(F)F)c2)C(=O)N(C)C1c1ccc(C#N)cc1C(=O)N[C@H]1C[C@H]1N (stereo partly drawn) [Example 4.6]
27 | < 1 | CCOC(=O)C1=C(C)N(c2cccc(C(F)(F)F)c2)C(=O)N(C)C1c1ccc(C#N)cc1C(=O)N[C@@H]1C[C@H]1N (stereo partly drawn) [Example 4.7]

Row | IC50 [nM] | Compound
28 | < 1 | CCOC(=O)C1=C(C)N(c2cccc(C(F)(F)F)c2)C(=O)N(C)C1c1ccc(C#N)cc1C(=O)N(C)CCN (stereo not drawn) [Example 4.8]
29 | < 1 | CCOC(=O)C1=C(C)N(c2cccc(C(F)(F)F)c2)C(=O)N(C)C1c1ccc(C#N)cc1C(=O)NCCNC (stereo not drawn) [Example 4.9]
30 | 1.2 | CCOC(=O)C1=C(C)N(c2cccc(C(F)(F)F)c2)C(=O)N(C)C1c1ccc(C#N)cc1C(=O)N[C@H]1CCNC1 (stereo partly drawn) [Example 4.10]
31 | 1.1 | CCOC(=O)C1=C(C)N(c2cccc(C(F)(F)F)c2)C(=O)N(C)C1c1ccc(C#N)cc1C(=O)N[C@@H]1CCNC1 (stereo partly drawn) [Example 4.11]
32 | < 1 | CCOC(=O)C1=C(C)N(c2cccc(C(F)(F)F)c2)C(=O)N(C)C1c1ccc(C#N)cc1C(=O)N1CC[C@@H](N)C1 (stereo partly drawn) [Example 4.12]
33 | < 1 | CCOC(=O)C1=C(C)N(c2cccc(C(F)(F)F)c2)C(=O)N(C)C1c1ccc(C#N)cc1C(=O)N1CC[C@H](N)C1 (stereo partly drawn) [Example 4.13]
34 | < 1 | CCOC(=O)C1=C(C)N(c2cccc(C(F)(F)F)c2)C(=O)N(C)C1c1ccc(C#N)cc1C(=O)N1CC[C@H](NC)C1 (stereo partly drawn) [Example 4.16]
35 | 2 | CCOC(=O)C1=C(C)N(c2cccc(C(F)(F)F)c2)C(=O)N(C)C1c1ccc(C#N)cc1C(=O)N1CCNC(C)C1 (stereo not drawn) [Example 4.17]
36 | 1.3 | CCOC(=O)C1=C(C)N(c2cccc(C(F)(F)F)c2)C(=O)N(C)C1c1ccc(C#N)cc1C(=O)NC1CCN(C)C1 (stereo not drawn) [Example 4.18]
37 | 2.6 | CC(=O)C1=C(C)N(c2cccc(C(F)(F)F)c2)C(=O)N(C)C1c1ccc(C#N)cc1-c1ccoc1 (stereo not drawn) [Example 5, 4-[5-Acetyl-3,6-dimethyl-2-oxo-1-(3-trifluoromethyl-phenyl)-1,2,3,4-tetrahydro-pyrimidin-4-yl]-3-furan-3-yl-benzonitrile]
38 | 1.9 | CC(=O)C1=C(C)N(c2cccc(C(F)(F)F)c2)C(=O)N(C)C1c1ccc(C#N)cc1-c1ccco1 (stereo not drawn) [Example 5.1]
39 | 1.4 | CC(=O)C1=C(C)N(c2cccc(C(F)(F)F)c2)C(=O)N(C)C1c1ccc(C#N)cc1-c1ccn(C)n1 (stereo not drawn) [Example 5.2]
40 | 1.1 | CC(=O)C1=C(C)N(c2cccc(C(F)(F)F)c2)C(=O)N(C)C1c1ccc(C#N)cc1-c1cnn(C)c1 (stereo not drawn) [Example 5.3]
41 | < 1 | CC(=O)C1=C(C)N(c2cccc(C(F)(F)F)c2)C(=O)N(C)C1c1ccc(C#N)cc1-c1ccn(C)c(=O)c1 (stereo not drawn) [Example 5.4]
42 | 5.3 | CC(=O)C1=C(C)N(c2cccc(C(F)(F)F)c2)C(=O)N(C)C1c1ccc(C#N)cc1C1=CN(C(=O)OC(C)(C)C)CC1 (stereo not drawn) [Example 5.5]
43 | 4.8 | CC(=O)C1=C(C)N(c2cccc(C(F)(F)F)c2)C(=O)N(C)C1c1ccc(C#N)cc1C1=CCN(C(=O)OC(C)(C)C)CC1 (stereo not drawn) [Example 5.6, 4-{2-[5-Acetyl-3,6-dimethyl-2-oxo-1-(3-trifluoromethyl-phenyl)-1,2,3,4-tetrahydro-pyrimidin-4-yl]-5-cyano-phenyl}-3,6-dihydro-2H-pyridine-1-carboxylic acid tert-butyl ester]
44 | < 1 | CC(=O)C1=C(C)N(c2cccc(C(F)(F)F)c2)C(=O)N(C)C1c1ccc(C#N)cc1C1=CCOCC1 (stereo not drawn) [Example 5.7]
45 | < 1 | CC(=O)C1=C(C)N(c2cccc(C(F)(F)F)c2)C(=O)N(C)C1c1ccc(C#N)cc1-c1cnco1 (stereo not drawn) [Example 5.8]
46 | 1.4 | CC(=O)C1=C(C)N(c2cccc(C(F)(F)F)c2)C(=O)N(C)C1c1ccc(C#N)cc1-c1cccnc1 (stereo not drawn) [Example 5.9]
47 | 1.3 | CC(=O)C1=C(C)N(c2cccc(C(F)(F)F)c2)C(=O)N(C)C1c1ccc(C#N)cc1-c1ccncc1 (stereo not drawn) [Example 5.10]
48 | < 1 | CC(=O)C1=C(C)N(c2cccc(C(F)(F)F)c2)C(=O)N(C)C1c1ccc(C#N)cc1-c1ccc(=O)n(C)c1 (stereo not drawn) [Example 5.11]
49 | 3 | CC(=O)C1=C(C)N(c2cccc(C(F)(F)F)c2)C(=O)N(C)C1c1ccc(C#N)cc1-c1ccc2c(cnn2C)c1 (stereo not drawn) [Example 5.12]
50 | 22.6 | CC(=O)C1=C(C)N(c2cccc(C(F)(F)F)c2)C(=O)N(C)C1c1ccc(C#N)cc1-c1ccc2occc2c1 (stereo not drawn) [Example 5.13]
51 | 5.7 | CC(=O)C1=C(C)N(c2cccc(C(F)(F)F)c2)C(=O)N(C)C1c1ccc(C#N)cc1-c1ccc2c(ccn2C)c1 (stereo not drawn) [Example 5.14]
52 | < 1 | CC(=O)C1=C(C)N(c2cccc(C(F)(F)F)c2)C(=O)N(C)C1c1ccc(C#N)cc1-c1cncc(F)c1 (stereo not drawn) [Example 5.15]
53 | < 1 | CC(=O)C1=C(C)N(c2cccc(C(F)(F)F)c2)C(=O)N(C)C1c1ccc(C#N)cc1-c1nnco1 (stereo not drawn) [Example 6, 4-[5-Acetyl-3,6-dimethyl-2-oxo-1-(3-trifluoromethyl-phenyl)-1,2,3,4-tetrahydro-pyrimidin-4-yl]-3-[1,3,4]oxadiazol-2-yl-benzonitrile]

Row | Compound | IC50 [nM]
54 | CCOC(=O)C1=C(C)N(c2cccc(C(F)(F)F)c2)C(=O)N(C)C1c1ccc(C#N)cc1C(=O)N1CC2COCC(C1)N2 (stereo not drawn) [Example 4.4] | 11.4

From US9290457B2, “Substituted dihydropyrimidinones and their use as inhibitors of neutrophil elastase activity” (Boehringer Ingelheim International GmbH, priority 2014, dated 2016)
